In patent US7531555B2, “Compositions and methods for selective inhibition of nicotine acetylcholine receptors” (University of Florida Research Foundation, Inc., priority 2003, dated 2009):

Legend:
Rat α4β2 = molecular target: T1, Rat α4β2 (Rattus norvegicus, UniProt P09483+P12390); settings: mecamylamine, comparison value in discussion; read-out: IC50 (peak), expressed α4β2 subtypes; cited from earlier work
T1 construct: expressed in transfected cells; host or cells: Xenopus laevis oocytes injected with subunit cRNAs; clones from Dr. Jim Boulter (UCLA)

mice [1] = experiment: Locomotor activity, nicotine-induced hypomotility; assay type: in vivo; settings: Saline/Nicotine (1.5 mg/kg), s.c.
Procedure: Animals. Male ICR mice (20-25 g) obtained from Harlan Laboratories (Indianapolis, Ind.) were used throughout the study. Animals were housed in groups of six and had free access to food and water. Adult, male Long-Evans rats (350-460 g), obtained from Harlan (Dublin, Va.), were individually housed in a temperature-controlled (20-22° C.) environment with a 12-hour light-dark cycle (lights on at 7 a.m.). Rats were maintained within the indicated weight range by restricted post-session feeding and had ad libitum water in their home cages. Rats were drug-naive at the beginning of the study. Animals were housed in an AALAC approved facility and the study was approved by the Institutional Animal Care and Use Committee of Virginia Commonwealth University.
Locomotor activity. Mice were placed into individual Omnitech photocell activity cages (28×16.5 cm) immediately after s.c. administration of either 0.9% saline or nicotine (6.2 μmol/kg or 1 mg/kg) and were allowed to acclimate for 10 minutes. Interruptions of the photocell beams (two banks of eight cells each) were then recorded for the next 10 minutes. Data were expressed as percentage of depression where % depression=[1−(counts from nicotine-treated animals/counts from vehicle-treated animals)]×100. Mice were pretreated s.c. with either saline or TMPH 10 minutes before nicotine.
Eight to twelve mice were tested in each treatment group and each animal was tested only once.
Statistical analysis. Statistical analysis of all analgesic and in vivo studies was performed using either t-test or analysis of variance (ANOVA) with Tukey's test post hoc test when appropriate. All differences were considered significant at p<0.05. AD50 values with 95% CL for behavioral data were calculated by unweighted least-squares linear regression as described by Tallarida and Murray (Tallarida and Murray Manual of Pharmacological Calculations with Computer Programs. 1987, Springer-Verlag, New York).

mice [2] = experiment: Body temperature, nicotine-induced hypothermia; assay type: in vivo; settings: Saline/Nicotine (1.5 mg/kg), s.c.
Procedure: Animals. Male ICR mice (20-25 g) obtained from Harlan Laboratories (Indianapolis, Ind.) were used throughout the study. Animals were housed in groups of six and had free access to food and water. Adult, male Long-Evans rats (350-460 g), obtained from Harlan (Dublin, Va.), were individually housed in a temperature-controlled (20-22° C.) environment with a 12-hour light-dark cycle (lights on at 7 a.m.). Rats were maintained within the indicated weight range by restricted post-session feeding and had ad libitum water in their home cages. Rats were drug-naive at the beginning of the study. Animals were housed in an AALAC approved facility and the study was approved by the Institutional Animal Care and Use Committee of Virginia Commonwealth University. Body temperature. Rectal temperature was determined by a thermistor probe (inserted 24 mm) and digital thermometer (Yellow Springs Instrument Co., Yellow Springs, Ohio). […] The difference in rectal temperature before and after treatment was calculated for each mouse. The ambient temperature of the laboratory varied from 21-24° C. from day to day. […] Psychopharmacology (Berl), 1995, 117:67-73). Eight to twelve mice were tested in each treatment group and each animal was tested only once. Statistical analysis. Statistical analysis of all analgesic and in vivo studies was performed using either t-test or analysis of variance (ANOVA) with Tukey's test post hoc test when appropriate.

T1 sequence (P09483 31-630): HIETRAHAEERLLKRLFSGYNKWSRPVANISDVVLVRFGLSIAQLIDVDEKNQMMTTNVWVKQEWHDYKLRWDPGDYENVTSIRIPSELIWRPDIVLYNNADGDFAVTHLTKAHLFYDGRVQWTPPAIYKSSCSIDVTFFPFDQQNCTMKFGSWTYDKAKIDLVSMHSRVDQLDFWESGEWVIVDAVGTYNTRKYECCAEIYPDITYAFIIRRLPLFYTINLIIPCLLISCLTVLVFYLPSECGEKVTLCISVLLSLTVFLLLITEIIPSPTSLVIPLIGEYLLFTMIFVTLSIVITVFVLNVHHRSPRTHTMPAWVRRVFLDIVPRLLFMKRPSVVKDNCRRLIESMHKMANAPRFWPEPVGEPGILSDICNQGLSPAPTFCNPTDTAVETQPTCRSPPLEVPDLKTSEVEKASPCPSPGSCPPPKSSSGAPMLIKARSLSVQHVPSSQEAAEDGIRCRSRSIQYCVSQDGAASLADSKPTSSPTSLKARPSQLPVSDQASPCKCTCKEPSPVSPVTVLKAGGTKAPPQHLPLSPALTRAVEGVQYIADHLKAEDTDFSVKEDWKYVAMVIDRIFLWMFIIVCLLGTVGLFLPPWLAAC
T1 sequence (P12390 25-500): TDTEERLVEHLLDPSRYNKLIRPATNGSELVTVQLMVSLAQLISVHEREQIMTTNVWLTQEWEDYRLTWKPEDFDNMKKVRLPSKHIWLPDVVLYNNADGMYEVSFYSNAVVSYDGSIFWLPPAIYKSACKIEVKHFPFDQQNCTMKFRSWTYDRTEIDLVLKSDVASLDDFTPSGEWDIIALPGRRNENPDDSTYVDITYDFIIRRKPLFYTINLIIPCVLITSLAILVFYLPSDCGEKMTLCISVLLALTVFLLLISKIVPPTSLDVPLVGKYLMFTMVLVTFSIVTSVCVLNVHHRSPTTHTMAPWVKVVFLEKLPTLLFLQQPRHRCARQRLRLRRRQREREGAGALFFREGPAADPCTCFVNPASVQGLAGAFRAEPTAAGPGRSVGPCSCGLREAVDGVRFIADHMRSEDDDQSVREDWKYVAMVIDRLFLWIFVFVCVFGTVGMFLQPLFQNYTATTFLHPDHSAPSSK

SMILES | IC50 (Rat α4β2) [nM] | Locomotor Activity # Interrupts (Mean ± SEM) (mice [1]) | Body temperature Δ° C. (Mean ± SEM) (mice [2]) [°C]
CNC1(C)C2CCC(C2)C1(C)C (stereo not drawn) [Mecamylamine] | 2500 | – | –
CN1CCCC1c1cccnc1 (single isomer, unassigned; (-)) [Nicotine, (−)-Nicotine] | – | 358 ± 92 # Interrupts | −5.0 ± 0.3
